Measurements taken from patent US3997506A (priority 1974, dated 1976).
Several values for one entry are separate records, joined by “and”; a condition that tells them apart may be missing. Identical values can stand only once. Like-named read-outs stand apart in the source and are kept apart here.

Assays:
[1] = test system: Sprague Dawley SIV 50 rat; assay type: in vivo, male and female Sprague Dawley SIV 50 rat
From the text: The high toxicity of the new derivative of colchicine (N-desacetyl-N-adamantoyl-thiocolchicine) has been investigated through the oral way with the male and female Sprague Dawley SIV 50 rat having an average weight of 100 g.
Two experiments have been carried out. In the first one, only the high toxicity of the derivative has been studied; in the second one, the high toxicity of the derivative has been compared with that of colchicine.
The derivative and colchicine have been administered in suspension in propylene glycol through an oesophageal tube at the rate of 2 ml per rat for the first experiment and of 1 ml for the second one.
The animals have been observed for 10 days.

[2] = test system: phagocytosis by peritoneal macrophages of mice; assay type: cell-based; conditions: for % phagocytosis with respect to controls (= 100%): 80 min
in vitro [3] = conditions: human, leucocytes, % of dead cells (Average of 2 determinations), no PHA
[4] = test system: oedema produced by crystals of urate in the hind paw of the rat; assay type: in vivo, Sprague Dawely female rats
human leucocytes [5] = assay: in vitro; assay type: cell-based
Method: (§1) The cytotoxicity has been investigated on human leucocytes by means of the viability test with Trypan blue.
(§2) a. In a first experimentation cultures of leucocytes of a voluntary […] were prepared and caused to undergo incubation with phytohemagglutinin (PHA) and with different concentrations of colchicine or of its derivative (C1 = 2.5 μg/ml of culture, C3 = 10 μg/ml, C5 = 30 μg/ml, C6 = 50 μg/ml). Leucocytes only containing PHA served as controls.
(§3) After 3, 42, 68 and 72 hours of incubation a sample of each culture was contacted by a drop of Trypan blue and laid on a slide of a microscope. Then took place the counting of the dead cells (those with assumed an […] colour) and of all the cells present on the slide in order to obtain the ratio of the number of dead cells to the total number of cells. The results expressed as a rate in per cent are shown in the accompanying table 8.
(§4) b. After the experimentation which has just been described, the study of cytotoxicity has been continued with two other samples of human leucocytes still by means of the viability test with Trypan blue.
(§5) C1 = 2.5 μg/ml of culture
(§6) C6 = 50 μg/ml of culture;
(§7) and for the carboxy-1-adamantane fraction to:
(§8) C3 = 4.5 μg/ml of culture
(§9) C6 = 22.5 μg/ml of culture.
(§10) Leucocytes only containing phytohemagglutinin and others containing phytohemagglutinin and 50 μl of methanol served as controls.
(§11) The percentage of dead cells was determined after different numbers of hours of incubation.

in vitro [6] = assay type: cell-based, human; conditions: human, leucocytes, read-out: % of dead cells
Method: as §1, §2, §3, §4, §5, §6, §7, §8, §9, §10, §11

leucocytes from rats [7] = conditions: 6 hours after administration, 2 mg/kg oral
leucocytes from rats [8] = conditions: individual rat, 2 mg/kg oral, 2 mg/kg
human leucocytes [9] = test system: human leucocytes
[10] = 2 mg/kg, three subcutaneous injections, 6 h after urate
[11] = first experimentation, C1 = 2.5 μg/ml
[12] = first experimentation, C3 = 10 μg/ml
[13] = first experimentation, C5 = 30 μg/ml
[14] = first experimentation, C6 = 50 μg/ml

Structure (SMILES): COc1cc2c(c(OC)c1OC)-c1ccc(OC)c(=O)cc1[C@@H](NC(C)=O)CC2 [Colchicine, colchicine, reference compound]
- rats dead after 24 hours ([1]; 100 mg/kg oral): 1 rat
- rats dead after 48 hours ([1]; 100 mg/kg oral): 5 rats
- rats dead after 24 hours ([1]; 500 mg/kg oral): 5 rats
- rats dead after 48 hours ([1]; 500 mg/kg oral): 1 rat
- inhibition of phagocytosis ([2]; 0.004 μg): 15%
- % phagocytosis with respect to controls (= 100%) ([2]; 0.004 μg, Experimentation III): 87.6%
- % phagocytosis with respect to controls (= 100%) ([2]; 0.004 μg, Experimentation IV): 81.6%
- % phagocytosis with respect to controls (= 100%) ([2]; 0.04 μg, Experimentation III): 65%
- % phagocytosis with respect to controls (= 100%) ([2]; 0.04 μg, Experimentation IV): 78.9%
- % phagocytosis with respect to controls (= 100%) ([2]; 0.04 μg, Experimentation V): 79.5%
- % phagocytosis with respect to controls (= 100%) ([2]; 0.4 μg, Experimentation III): 44.7%
- % phagocytosis with respect to controls (= 100%) ([2]; 0.4 μg, Experimentation IV): 54.3%
- % phagocytosis with respect to controls (= 100%) ([2]; 0.4 μg, Experimentation V): 54.4%
- inhibition of phagocytosis ([2]; 4 μg): 65%
- % phagocytosis with respect to controls (= 100%) ([2]; 4 μg, Experimentation II): 36.9%
- % phagocytosis with respect to controls (= 100%) ([2]; 4 μg, Experimentation III): 34.5%
- % phagocytosis with respect to controls (= 100%) ([2]; 4 μg, Experimentation IV): 32.2%
- % phagocytosis with respect to controls (= 100%) ([2]; 4 μg, Experimentation V): 38.2%
- % phagocytosis with respect to controls (= 100%) ([2]; 5 μg, Experimentation II): 30.3%
- % phagocytosis with respect to controls (= 100%) ([2]; 10 μg, Experimentation II): 33.7%
- % phagocytosis with respect to controls (= 100%) ([2]; 12.5 μg, Experimentation I): 36.5%
- % phagocytosis with respect to controls (= 100%) ([2]; 20 μg, Experimentation II): 33.4%
- % phagocytosis with respect to controls (= 100%) ([2]; 30 μg, Experimentation II): 36.2%
- inhibition of phagocytosis ([2]; 40 μg): 67%
- % phagocytosis with respect to controls (= 100%) ([2]; 40 μg, Experimentation II): 32.0%
- % phagocytosis with respect to controls (= 100%) ([2]; 40 μg, Experimentation III): 33.2%
- % phagocytosis with respect to controls (= 100%) ([2]; 40 μg, Experimentation IV): 33.8%
- cytotoxicity at 6 h (in vitro [3]; C1 = 0.01 μg/ml): 1%
- cytotoxicity at 6 h (in vitro [3]; C2 = 0.1 μg/ml): 0%
- cytotoxicity at 6 h (in vitro [3]; C3 = 0.5 μg/ml): 2%
- cytotoxicity at 6 h (in vitro [3]; C4 = 1.0 μg/ml): 1%
- cytotoxicity at 6 h (in vitro [3]; C5 = 2.5 μg/ml): 1%
- cytotoxicity at 6 h (in vitro [3]; C6 = 10.0 μg/ml): 1%
- cytotoxicity at 30 h (in vitro [3]; C1 = 0.01 μg/ml): 55%
- cytotoxicity at 30 h (in vitro [3]; C2 = 0.1 μg/ml): 68%
- cytotoxicity at 30 h (in vitro [3]; C3 = 0.5 μg/ml): 54%
- cytotoxicity at 30 h (in vitro [3]; C4 = 1.0 μg/ml): 59%
- cytotoxicity at 30 h (in vitro [3]; C5 = 2.5 μg/ml): 60%
- cytotoxicity at 30 h (in vitro [3]; C6 = 10.0 μg/ml): 46%
- cytotoxicity at 48 h (in vitro [3]; C1 = 0.01 μg/ml): 93%
- cytotoxicity at 48 h (in vitro [3]; C2 = 0.1 μg/ml): 93%
- cytotoxicity at 48 h (in vitro [3]; C3 = 0.5 μg/ml): 91%
- cytotoxicity at 48 h (in vitro [3]; C4 = 1.0 μg/ml): 95%
- cytotoxicity at 48 h (in vitro [3]; C5 = 2.5 μg/ml): 92%
- cytotoxicity at 48 h (in vitro [3]; C6 = 10.0 μg/ml): 92%
- % of inhibition of edema [4, 10]: 48%
- Difference in weight between left and right leg (Average ± standard deviation of mean term) [4, 10]: 0.152 ± 0.019 g
- protection against the oedema produced by crystals of urate (in words) ([4]; colchicine 2 mg/kg, derivative 6 mg/kg): significant protection
- cytotoxicity, cultures I and II (in words) (human leucocytes [5]; Cultures I and II): practically identical with that due to the methanol
- cytotoxicity, colchicine versus derivative (in words) (human leucocytes [5]; [11]): substantially the same
- cytotoxicity at 4 h (in vitro [6]; Culture I, C3 = 10 μg/ml): 6%
- cytotoxicity at 4 h (in vitro [6]; Culture I, C6 = 50 μg/ml): 9%
- cytotoxicity at 22 h (in vitro [6]; Culture I, C3 = 10 μg/ml): 5%
- cytotoxicity at 22 h (in vitro [6]; Culture I, C6 = 50 μg/ml): 7%
- cytotoxicity at 46 h (in vitro [6]; Culture I, C3 = 10 μg/ml): 24%
- cytotoxicity at 46 h (in vitro [6]; Culture I, C6 = 50 μg/ml): 19%
- cytotoxicity at 76 h (in vitro [6]; Culture I, C3 = 10 μg/ml): 24%
- cytotoxicity at 76 h (in vitro [6]; Culture I, C6 = 50 μg/ml): 23%
- cytotoxicity at 23 h (in vitro [6]; Culture II, C1 = 2.5 μg/ml): 3%
- cytotoxicity at 23 h (in vitro [6]; Culture II, C3 = 10 μg/ml): 4%
- cytotoxicity at 23 h (in vitro [6]; Culture II, C5 = 30 μg/ml): 5%
- cytotoxicity at 46 h (in vitro [6]; Culture II, C1 = 2.5 μg/ml): 11%
- cytotoxicity at 46 h (in vitro [6]; Culture II, C3 = 10 μg/ml): 8%
- cytotoxicity at 46 h (in vitro [6]; Culture II, C5 = 30 μg/ml): 11%
- cytotoxicity at 72 h (in vitro [6]; Culture II, C1 = 2.5 μg/ml): 13%
- cytotoxicity at 72 h (in vitro [6]; Culture II, C3 = 10 μg/ml): 14%
- cytotoxicity at 72 h (in vitro [6]; Culture II, C5 = 30 μg/ml): 18%
- cytotoxicity at 3 h (in vitro [6]; [11]): 1%
- cytotoxicity at 3 h (in vitro [6]; [12]): 1%
- cytotoxicity at 3 h (in vitro [6]; [13]): 0%
- cytotoxicity at 3 h (in vitro [6]; [14]): 0%
- cytotoxicity at 42 h (in vitro [6]; [11]): 3%
- cytotoxicity at 42 h (in vitro [6]; [12]): 2%
- cytotoxicity at 42 h (in vitro [6]; [13]): 10%
- cytotoxicity at 42 h (in vitro [6]; [14]): 2%
- cytotoxicity at 68 h (in vitro [6]; [11]): 6%
- cytotoxicity at 68 h (in vitro [6]; [12]): 9%
- cytotoxicity at 68 h (in vitro [6]; [13]): 9%
- cytotoxicity at 68 h (in vitro [6]; [14]): 21%
- cytotoxicity at 72 h (in vitro [6]; [11]): 7%
- cytotoxicity at 72 h (in vitro [6]; [13]): 18%
- cytotoxicity at 72 h (in vitro [6]; [14]): 24%
- cytotoxic effect (in words) (leucocytes from rats [7]): no cytotoxic effect has been noticed
- % of dead cells (leucocytes from rats [7]; individual rat, 2 mg/kg, 360 min): 1% and 2% and 0%
- Leucocytes / mm^3 (leucocytes from rats [8]; experiment 1, 6 hours after administration): 9,500 / mm^3 and 7,900 / mm^3 and 7,750 / mm^3
- Leucocytes / mm^3 (leucocytes from rats [8]; experiment 1, before administration): 16,600 / mm^3 and 10,450 / mm^3 and 10,000 / mm^3
- Leucocytes / mm^3 (leucocytes from rats [8]; experiment 2, 6 hours after administration): 7,950 / mm^3 and 6,950 / mm^3 and 8,900 / mm^3
- Leucocytes / mm^3 (leucocytes from rats [8]; experiment 2, before administration): 9,000 / mm^3 and 7,050 / mm^3 and 9,950 / mm^3
- Leucocytes / mm^3 (leucocytes from rats [8]; experiment 3, 6 hours after administration): 9,750 / mm^3 and 13,750 / mm^3
- Leucocytes / mm^3 (leucocytes from rats [8]; experiment 3, before administration): 10,750 / mm^3 and 8,500 / mm^3 and 15,250 / mm^3
- number of leucocytes with increasing amounts (in words) (human leucocytes [9]; Table 9, 72 hours): decreases with increasing amounts of colchicine
- Count of leucocytes after 72 hours (human leucocytes [9]; Table 9, C1 = 2.5 μg/ml, control 412,500): 457,000
- Count of leucocytes after 72 hours (human leucocytes [9]; Table 9, C3 = 10 μg/ml, control 412,500): 420,000
- Count of leucocytes after 72 hours (human leucocytes [9]; Table 9, C5 = 30 μg/ml, control 412,500): 397,000
- Count of leucocytes after 72 hours (human leucocytes [9]; Table 9, C6 = 50 μg/ml, control 412,500): 270,000
- Count of leucocytes after 72 hours (human leucocytes [9]; Table 11, Culture I, C3 = 10 μg/ml): 550,000
- Count of leucocytes after 72 hours (human leucocytes [9]; Table 11, Culture I, C6 = 50 μg/ml): 610,000
- Count of leucocytes after 72 hours (human leucocytes [9]; Table 11, Culture II, C1 = 2.5 μg/ml): 240,000
- Count of leucocytes after 72 hours (human leucocytes [9]; Table 11, Culture II, C3 = 10 μg/ml): 295,000
- Count of leucocytes after 72 hours (human leucocytes [9]; Table 11, Culture II, C5 = 30 μg/ml): 205,000
- Count of leucocytes after 72 hours (human leucocytes [9]; Table 11, Culture II, C6 = 50 μg/ml (two values given)): 225,000 and 330,000
- number of leucocytes in absence or presence of substance (in words) (human leucocytes [9]; Table 11, very approximative): remain substantially the same
